Measurements published in the NIST ThermoML archive (doi:10.1021/je030161t).
Numbers after ± are expanded uncertainties.

Assays:
[1] = excess molar enthalpy (molar enthalpy of mixing); xn = mol fraction of the nth substance listed; conditions: 298.15 K, 101.3 kPa, Liquid, Flow calorimetry
[2] = 298.15 K; 101.33 kPa; Liquid; Vibrating tube method

An excess molar enthalpy ([1]; x2 = 0.05) of 0.0101 ± 0.000263 kcal/mol, an excess molar enthalpy ([1]; x2 = 0.1) of 0.0188 ± 0.000335 kcal/mol and an excess molar enthalpy ([1]; x2 = 0.1499) of 0.0262 ± 0.000382 kcal/mol were found for `CCC(C)CC` [3-methylpentane] + CC(C)OC(C)C in this work. For the same molecule, the excess molar enthalpy ([1]; x2 = 0.2) was 0.0325 ± 0.00043 kcal/mol, the excess molar enthalpy ([1]; x2 = 0.2503) was 0.0372 ± 0.000478 kcal/mol and the excess molar enthalpy ([1]; x2 = 0.2998) was 0.041 ± 0.000502 kcal/mol. The excess molar enthalpy ([1]; x2 = 0.3501) was 0.0439 ± 0.000526 kcal/mol, the excess molar enthalpy ([1]; x2 = 0.3997) was 0.046 ± 0.00055 kcal/mol and the excess molar enthalpy ([1]; x2 = 0.45) was 0.0472 ± 0.00055 kcal/mol. It also gave an excess molar enthalpy ([1]; x2 = 0.5003) of 0.0472 ± 0.00055 kcal/mol, an excess molar enthalpy ([1]; x2 = 0.5502) of 0.0463 ± 0.00055 kcal/mol and an excess molar enthalpy ([1]; x2 = 0.5998) of 0.0448 ± 0.000526 kcal/mol. The excess molar enthalpy ([1]; x2 = 0.65) was 0.0422 ± 0.000526 kcal/mol, the excess molar enthalpy ([1]; x2 = 0.7002) was 0.0387 ± 0.000478 kcal/mol and the excess molar enthalpy ([1]; x2 = 0.7501) was 0.0343 ± 0.000454 kcal/mol. For the same molecule, the excess molar enthalpy ([1]; x2 = 0.8003) was 0.029 ± 0.000406 kcal/mol, the excess molar enthalpy ([1]; x2 = 0.85) was 0.0224 ± 0.000359 kcal/mol and the excess molar enthalpy ([1]; x2 = 0.9) was 0.0158 ± 0.000311 kcal/mol. The excess molar enthalpy ([1]; x2 = 0.95) was 0.00855 ± 0.000263 kcal/mol.

A mass density [2] of 698.72 ± 0.4 kg/m3 was found for `CCCCCCCC` [octane] in this work.

A mass density [2] of 718.7 ± 0.41 kg/m3 was found for `CC(C)OC(C)C` [diisopropyl ether] in this work.

A mass density [2] of 726.3 ± 0.41 kg/m3 was found for `CCCCCCCCCC` [decane] in this work.

A mass density [2] of 659.94 ± 0.4 kg/m3 was found for `CCC(C)CC` [3-methylpentane] in this work.
